{"source": "ChEMBL document CHEMBL3797068", "about": "“eCF309: a potent, selective and cell-permeable mTOR inhibitor” (Medchemcomm, 2016)", "key": {"MCF7 [1]": {"tested_on": "MCF7", "assay": "Cytotoxicity against human MCF7 cells after 5 days by Presto blue reagent-based fluorescence analysis", "format": "functional, cell-based", "conditions": "for EC50: MCF7, 120 h"}, "MCF7 [2]": {"tested_on": "MCF7", "assay": "Cytotoxicity against human MCF7 cells assessed as cell viability at 1000 nM after 5 days by Presto blue reagent-based spectrofluorometric analysis", "format": "functional", "conditions": "MCF7, 120 h, read-out: Activity"}, "[3]": {"target": "T1, Phosphatidylinositol 4,5-bisphosphate 3-kinase catalytic subunit delta isoform (Homo sapiens, UniProt O00329)", "T1 sequence (O00329 whole entry)": "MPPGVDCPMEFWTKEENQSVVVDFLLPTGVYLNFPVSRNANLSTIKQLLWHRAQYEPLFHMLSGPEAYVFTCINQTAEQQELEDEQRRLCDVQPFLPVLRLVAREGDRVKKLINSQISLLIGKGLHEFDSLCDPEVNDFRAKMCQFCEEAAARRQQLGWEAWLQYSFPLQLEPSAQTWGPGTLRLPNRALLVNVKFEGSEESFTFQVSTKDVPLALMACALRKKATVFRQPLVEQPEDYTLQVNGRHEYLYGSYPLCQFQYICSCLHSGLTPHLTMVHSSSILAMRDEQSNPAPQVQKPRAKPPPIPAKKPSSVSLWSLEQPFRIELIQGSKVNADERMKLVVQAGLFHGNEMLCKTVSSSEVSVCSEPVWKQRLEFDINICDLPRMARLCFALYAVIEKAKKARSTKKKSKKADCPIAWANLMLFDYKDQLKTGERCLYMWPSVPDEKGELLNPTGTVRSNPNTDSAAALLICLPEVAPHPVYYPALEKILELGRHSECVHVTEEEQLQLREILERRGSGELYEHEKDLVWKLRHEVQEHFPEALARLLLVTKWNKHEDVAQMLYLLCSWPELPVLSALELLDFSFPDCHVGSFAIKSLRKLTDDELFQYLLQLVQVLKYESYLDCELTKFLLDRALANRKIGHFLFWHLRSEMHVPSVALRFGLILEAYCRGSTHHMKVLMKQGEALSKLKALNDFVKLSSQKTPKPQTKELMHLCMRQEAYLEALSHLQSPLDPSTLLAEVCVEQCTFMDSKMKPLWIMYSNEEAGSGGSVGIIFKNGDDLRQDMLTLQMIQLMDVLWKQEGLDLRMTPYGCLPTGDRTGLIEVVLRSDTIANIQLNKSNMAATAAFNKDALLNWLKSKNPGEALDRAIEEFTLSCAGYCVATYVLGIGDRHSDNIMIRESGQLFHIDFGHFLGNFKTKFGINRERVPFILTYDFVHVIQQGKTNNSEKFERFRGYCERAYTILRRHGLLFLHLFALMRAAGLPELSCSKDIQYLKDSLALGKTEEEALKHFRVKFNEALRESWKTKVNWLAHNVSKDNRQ", "assay": "Inhibition of PI3Kdelta (unknown origin) using PIP2 as substrate by HTRF assay"}, "[4]": {"assay": "Cell cycle arrest in human PC3 cells assessed as increase in G0/G1 population after 24 hrs by Hoechst 33342 staining-based fluorescence analysis", "format": "functional", "conditions": "PC-3"}, "MCF7 [5]": {"tested_on": "MCF7", "assay": "Cell cycle arrest in human MCF7 cells assessed as increase in G0/G1 population after 24 hrs by Hoechst 33342 staining-based fluorescence analysis", "format": "functional"}, "MDA-MB-231 [6]": {"tested_on": "MDA-MB-231", "assay": "Cell cycle arrest in human MDA-MB-231 cells assessed as increase in G0/G1 population after 24 hrs by Hoechst 33342 staining-based fluorescence analysis", "format": "functional"}, "[7]": {"target": "T2, Phosphatidylinositol 4,5-bisphosphate 3-kinase catalytic subunit gamma isoform (Homo sapiens, UniProt P48736)", "T2 sequence (P48736 whole entry, canonical isoform)": "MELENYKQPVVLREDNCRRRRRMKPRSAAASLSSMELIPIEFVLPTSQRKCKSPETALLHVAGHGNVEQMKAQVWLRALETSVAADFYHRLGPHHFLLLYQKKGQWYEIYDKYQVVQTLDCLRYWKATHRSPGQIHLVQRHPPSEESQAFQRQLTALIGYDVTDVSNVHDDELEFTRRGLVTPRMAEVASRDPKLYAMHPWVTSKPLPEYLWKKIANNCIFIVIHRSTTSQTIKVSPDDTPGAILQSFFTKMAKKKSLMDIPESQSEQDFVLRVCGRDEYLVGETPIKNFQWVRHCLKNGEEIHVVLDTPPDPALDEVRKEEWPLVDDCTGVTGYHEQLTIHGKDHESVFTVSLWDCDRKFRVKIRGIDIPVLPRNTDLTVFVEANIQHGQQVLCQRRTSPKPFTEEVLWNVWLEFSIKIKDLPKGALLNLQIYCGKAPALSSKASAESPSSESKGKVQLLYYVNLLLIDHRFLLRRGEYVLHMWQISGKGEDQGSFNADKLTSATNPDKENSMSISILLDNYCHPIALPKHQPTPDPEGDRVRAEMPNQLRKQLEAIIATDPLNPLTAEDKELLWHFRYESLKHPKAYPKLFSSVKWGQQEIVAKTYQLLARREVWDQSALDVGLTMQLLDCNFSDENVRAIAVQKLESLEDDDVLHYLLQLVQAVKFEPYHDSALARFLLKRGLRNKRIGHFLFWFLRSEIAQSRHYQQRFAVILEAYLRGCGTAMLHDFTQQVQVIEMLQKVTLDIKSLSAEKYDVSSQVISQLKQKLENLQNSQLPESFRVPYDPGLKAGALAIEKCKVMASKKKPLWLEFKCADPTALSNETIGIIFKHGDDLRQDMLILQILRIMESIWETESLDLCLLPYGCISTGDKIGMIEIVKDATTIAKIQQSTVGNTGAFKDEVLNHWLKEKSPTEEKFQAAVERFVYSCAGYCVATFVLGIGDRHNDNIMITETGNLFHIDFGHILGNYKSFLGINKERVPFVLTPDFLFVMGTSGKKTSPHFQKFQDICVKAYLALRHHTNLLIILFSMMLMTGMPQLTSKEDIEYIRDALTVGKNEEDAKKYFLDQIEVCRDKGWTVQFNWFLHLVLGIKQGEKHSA", "assay": "Inhibition of PI3Kgamma (unknown origin) using PIP2 as substrate by HTRF assay"}, "[8]": {"target": "T3, Phosphatidylinositol 4,5-bisphosphate 3-kinase catalytic subunit alpha isoform (Homo sapiens, UniProt P42336)", "T3 sequence (P42336 whole entry, canonical isoform)": "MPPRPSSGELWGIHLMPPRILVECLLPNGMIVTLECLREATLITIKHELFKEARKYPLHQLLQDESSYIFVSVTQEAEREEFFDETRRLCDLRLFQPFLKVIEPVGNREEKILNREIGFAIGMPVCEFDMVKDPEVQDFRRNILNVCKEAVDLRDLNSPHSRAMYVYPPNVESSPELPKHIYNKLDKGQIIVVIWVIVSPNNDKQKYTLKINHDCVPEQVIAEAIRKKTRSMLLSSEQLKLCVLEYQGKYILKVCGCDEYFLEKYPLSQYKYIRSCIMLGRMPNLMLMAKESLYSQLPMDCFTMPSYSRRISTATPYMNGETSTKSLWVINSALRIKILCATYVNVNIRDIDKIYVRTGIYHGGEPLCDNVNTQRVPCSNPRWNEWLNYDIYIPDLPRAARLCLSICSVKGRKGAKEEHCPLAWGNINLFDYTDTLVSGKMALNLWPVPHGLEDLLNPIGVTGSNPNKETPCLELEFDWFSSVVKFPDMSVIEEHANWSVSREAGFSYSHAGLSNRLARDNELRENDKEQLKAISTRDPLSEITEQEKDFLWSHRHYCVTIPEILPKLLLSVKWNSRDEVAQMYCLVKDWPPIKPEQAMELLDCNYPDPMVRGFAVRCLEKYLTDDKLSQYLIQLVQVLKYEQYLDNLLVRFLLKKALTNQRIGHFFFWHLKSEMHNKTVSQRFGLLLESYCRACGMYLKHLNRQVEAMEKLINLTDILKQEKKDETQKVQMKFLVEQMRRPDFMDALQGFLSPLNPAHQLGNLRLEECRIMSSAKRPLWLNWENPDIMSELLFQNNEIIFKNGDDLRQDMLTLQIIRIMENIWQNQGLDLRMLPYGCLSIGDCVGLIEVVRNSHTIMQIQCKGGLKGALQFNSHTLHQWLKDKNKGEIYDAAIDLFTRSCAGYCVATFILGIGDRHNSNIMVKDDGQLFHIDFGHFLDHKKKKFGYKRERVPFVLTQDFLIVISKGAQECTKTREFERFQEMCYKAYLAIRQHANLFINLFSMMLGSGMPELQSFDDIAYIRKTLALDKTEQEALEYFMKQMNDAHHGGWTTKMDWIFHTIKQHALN", "assay": "Inhibition of PI3Kalpha (unknown origin) using PIP2 as substrate by HTRF assay"}, "MDA-MB-231 [9]": {"tested_on": "MDA-MB-231", "assay": "Cytotoxicity against human MDA-MB-231 cells after 5 days by Presto blue reagent-based spectrofluorometric analysis", "format": "functional, cell-based", "conditions": "MDA-MB-231, 120 h"}, "[10]": {"target": "DNA-dependent protein kinase catalytic subunit (Homo sapiens, UniProt P78527)", "assay": "Inhibition of human DNA-PK using (poly [Glu, Tyr] 4:1) as substrate assessed as incorporation of 33P in substrate by [gamma33P] ATP-based kinase assay"}, "[11]": {"assay": "Cytotoxicity against human PC3 cells after 5 days by Presto blue reagent-based spectrofluorometric analysis", "format": "functional, cell-based", "conditions": "PC-3, 120 h"}, "[12]": {"target": "Epithelial discoidin domain-containing receptor 1 (Homo sapiens, UniProt Q08345)", "assay": "Inhibition of human DDR1 using (poly [Glu, Tyr] 4:1) as substrate assessed as incorporation of 33P in substrate by [gamma33P] ATP-based kinase assay"}, "[13]": {"target": "T4, Phosphatidylinositol 4,5-bisphosphate 3-kinase catalytic subunit beta isoform (Homo sapiens, UniProt P42338)", "T4 sequence (P42338 whole entry, canonical isoform)": "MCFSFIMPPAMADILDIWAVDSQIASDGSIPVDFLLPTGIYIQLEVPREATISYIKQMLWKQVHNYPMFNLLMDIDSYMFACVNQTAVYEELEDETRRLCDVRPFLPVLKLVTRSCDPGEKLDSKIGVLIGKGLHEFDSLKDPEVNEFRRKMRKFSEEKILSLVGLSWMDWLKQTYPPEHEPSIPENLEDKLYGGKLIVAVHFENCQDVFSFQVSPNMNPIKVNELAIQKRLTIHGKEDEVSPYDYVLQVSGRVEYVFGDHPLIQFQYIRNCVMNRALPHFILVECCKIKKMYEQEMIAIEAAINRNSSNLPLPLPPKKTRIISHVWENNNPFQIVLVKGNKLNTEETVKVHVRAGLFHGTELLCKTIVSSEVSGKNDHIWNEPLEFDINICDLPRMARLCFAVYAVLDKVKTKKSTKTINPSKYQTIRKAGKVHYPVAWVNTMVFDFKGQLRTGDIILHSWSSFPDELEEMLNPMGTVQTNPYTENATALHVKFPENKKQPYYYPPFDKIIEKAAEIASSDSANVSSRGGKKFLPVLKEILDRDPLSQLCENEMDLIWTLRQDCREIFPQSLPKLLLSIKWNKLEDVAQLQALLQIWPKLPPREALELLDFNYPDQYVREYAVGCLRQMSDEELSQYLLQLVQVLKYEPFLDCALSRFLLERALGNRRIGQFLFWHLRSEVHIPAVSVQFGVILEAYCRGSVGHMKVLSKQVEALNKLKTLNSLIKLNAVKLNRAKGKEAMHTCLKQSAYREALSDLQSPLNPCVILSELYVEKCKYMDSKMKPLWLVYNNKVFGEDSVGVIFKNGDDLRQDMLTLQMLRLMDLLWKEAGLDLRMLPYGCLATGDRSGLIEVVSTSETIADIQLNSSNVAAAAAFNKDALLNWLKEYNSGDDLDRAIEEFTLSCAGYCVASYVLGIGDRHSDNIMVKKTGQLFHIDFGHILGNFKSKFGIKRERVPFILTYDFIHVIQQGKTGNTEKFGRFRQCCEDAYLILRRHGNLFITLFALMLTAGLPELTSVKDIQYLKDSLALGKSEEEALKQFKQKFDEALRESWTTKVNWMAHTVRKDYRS", "assay": "Inhibition of PI3Kbeta (unknown origin) using PIP2 as substrate by HTRF assay"}, "[14]": {"target": "T5, Serine/threonine-protein kinase mTOR (Homo sapiens, UniProt P42345)", "assay": "Inhibition of recombinant human mTOR by LanthaScreen Kinase assay"}, "[15]": {"target": "T1, Phosphatidylinositol 4,5-bisphosphate 3-kinase catalytic subunit delta isoform", "assay": "Inhibition of PI3Kdelta (unknown origin) using (poly [Glu, Tyr] 4:1) as substrate assessed as incorporation of 33P in substrate by [gamma33P] ATP-based kinase assay"}, "[16]": {"target": "Tyrosine-protein kinase Fyn (Homo sapiens, UniProt P06241)", "assay": "Inhibition of human FYN using (poly [Glu, Tyr] 4:1) as substrate assessed as incorporation of 33P in substrate by [gamma33P] ATP-based kinase assay"}, "[17]": {"target": "T2, Phosphatidylinositol 4,5-bisphosphate 3-kinase catalytic subunit gamma isoform", "assay": "Inhibition of PI3Kgamma (unknown origin) using (poly [Glu, Tyr] 4:1) as substrate assessed as incorporation of 33P in substrate by [gamma33P] ATP-based kinase assay"}, "[18]": {"target": "T5, Serine/threonine-protein kinase mTOR", "assay": "Inhibition of human mTOR using (poly [Glu, Tyr] 4:1) as substrate assessed as incorporation of 33P in substrate by [gamma33P] ATP-based kinase assay"}, "[19]": {"target": "Proto-oncogene tyrosine-protein kinase receptor Ret (Homo sapiens, UniProt P07949)", "assay": "Inhibition of human RET using (poly [Glu, Tyr] 4:1) as substrate assessed as incorporation of 33P in substrate by [gamma33P] ATP-based kinase assay"}, "[20]": {"target": "Tyrosine-protein kinase ABL1 (Homo sapiens, UniProt P00519)", "assay": "Inhibition of human ABL using (poly [Glu, Tyr] 4:1) as substrate assessed as incorporation of 33P in substrate by [gamma33P] ATP-based kinase assay"}, "[21]": {"target": "T3, Phosphatidylinositol 4,5-bisphosphate 3-kinase catalytic subunit alpha isoform", "assay": "Inhibition of PI3Kalpha (unknown origin) using (poly [Glu, Tyr] 4:1) as substrate assessed as incorporation of 33P in substrate by [gamma33P] ATP-based kinase assay"}, "[22]": {"target": "Platelet-derived growth factor receptor alpha (Homo sapiens, UniProt P16234)", "sequence (P16234 whole entry)": "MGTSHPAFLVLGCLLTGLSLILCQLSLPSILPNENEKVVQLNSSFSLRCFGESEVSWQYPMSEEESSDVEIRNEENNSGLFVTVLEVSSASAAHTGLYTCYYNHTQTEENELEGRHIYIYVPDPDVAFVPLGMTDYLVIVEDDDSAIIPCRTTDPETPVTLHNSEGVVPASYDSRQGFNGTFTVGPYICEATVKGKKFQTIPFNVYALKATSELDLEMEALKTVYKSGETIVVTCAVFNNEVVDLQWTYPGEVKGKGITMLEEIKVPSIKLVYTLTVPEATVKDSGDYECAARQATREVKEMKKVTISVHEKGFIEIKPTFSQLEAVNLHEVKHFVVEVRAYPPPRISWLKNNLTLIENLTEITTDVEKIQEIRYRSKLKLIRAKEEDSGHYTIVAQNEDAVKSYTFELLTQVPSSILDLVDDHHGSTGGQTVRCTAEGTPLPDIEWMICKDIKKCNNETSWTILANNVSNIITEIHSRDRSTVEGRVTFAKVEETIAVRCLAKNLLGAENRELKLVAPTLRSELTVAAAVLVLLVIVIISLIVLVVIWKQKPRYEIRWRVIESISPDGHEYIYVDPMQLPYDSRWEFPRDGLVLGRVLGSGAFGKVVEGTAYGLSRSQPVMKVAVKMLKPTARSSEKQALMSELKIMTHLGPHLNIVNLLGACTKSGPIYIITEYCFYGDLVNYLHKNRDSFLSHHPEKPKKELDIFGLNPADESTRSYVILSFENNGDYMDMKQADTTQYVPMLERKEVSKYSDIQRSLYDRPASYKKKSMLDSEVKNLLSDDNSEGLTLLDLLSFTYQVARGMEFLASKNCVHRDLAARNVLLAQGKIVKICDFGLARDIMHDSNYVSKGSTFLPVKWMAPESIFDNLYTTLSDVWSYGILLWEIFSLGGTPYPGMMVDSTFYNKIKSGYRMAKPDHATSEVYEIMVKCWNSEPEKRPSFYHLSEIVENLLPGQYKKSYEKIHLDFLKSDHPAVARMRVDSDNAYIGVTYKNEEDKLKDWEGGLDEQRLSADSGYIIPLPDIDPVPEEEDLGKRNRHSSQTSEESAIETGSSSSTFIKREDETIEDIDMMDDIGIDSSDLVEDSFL", "assay": "Inhibition of human PDGFRalpha using (poly [Glu, Tyr] 4:1) as substrate assessed as incorporation of 33P in substrate by [gamma33P] ATP-based kinase assay"}, "[23]": {"target": "Mast/stem cell growth factor receptor Kit (Homo sapiens, UniProt P10721)", "assay": "Inhibition of human KIT using (poly [Glu, Tyr] 4:1) as substrate assessed as incorporation of 33P in substrate by [gamma33P] ATP-based kinase assay"}, "[24]": {"target": "Tyrosine-protein kinase Blk (Homo sapiens, UniProt P51451)", "assay": "Inhibition of human BLK using (poly [Glu, Tyr] 4:1) as substrate assessed as incorporation of 33P in substrate by [gamma33P] ATP-based kinase assay"}, "[25]": {"target": "T4, Phosphatidylinositol 4,5-bisphosphate 3-kinase catalytic subunit beta isoform", "assay": "Inhibition of PI3Kbeta (unknown origin) using (poly [Glu, Tyr] 4:1) as substrate assessed as incorporation of 33P in substrate by [gamma33P] ATP-based kinase assay"}, "[26]": {"target": "Proto-oncogene tyrosine-protein kinase Src (Homo sapiens, UniProt P12931)", "assay": "Inhibition of human SRC using (poly [Glu, Tyr] 4:1) as substrate assessed as incorporation of 33P in substrate by [gamma33P] ATP-based kinase assay"}, "[27]": {"target": "Tyrosine-protein kinase Yes (Homo sapiens, UniProt P07947)", "sequence (P07947 whole entry)": "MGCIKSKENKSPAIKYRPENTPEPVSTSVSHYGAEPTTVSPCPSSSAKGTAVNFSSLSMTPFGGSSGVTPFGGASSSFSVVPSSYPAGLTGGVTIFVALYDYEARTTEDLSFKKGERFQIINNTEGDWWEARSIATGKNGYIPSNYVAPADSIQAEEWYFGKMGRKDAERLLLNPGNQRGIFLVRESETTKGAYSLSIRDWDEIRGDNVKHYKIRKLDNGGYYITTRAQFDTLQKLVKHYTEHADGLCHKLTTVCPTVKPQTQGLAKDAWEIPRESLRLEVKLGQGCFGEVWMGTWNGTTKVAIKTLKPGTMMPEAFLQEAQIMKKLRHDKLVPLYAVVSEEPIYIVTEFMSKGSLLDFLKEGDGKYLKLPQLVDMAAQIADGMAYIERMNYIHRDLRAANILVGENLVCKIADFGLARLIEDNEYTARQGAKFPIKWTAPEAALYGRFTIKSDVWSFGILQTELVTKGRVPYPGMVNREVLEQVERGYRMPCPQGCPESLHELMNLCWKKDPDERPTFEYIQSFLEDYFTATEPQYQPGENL", "assay": "Inhibition of human YES using (poly [Glu, Tyr] 4:1) as substrate assessed as incorporation of 33P in substrate by [gamma33P] ATP-based kinase assay"}, "MCF7 [28]": {"tested_on": "MCF7", "assay": "Cytotoxicity against human MCF7 cells at 0.3 to 1000 nM after 5 days by Presto blue reagent-based spectrofluorometric analysis", "format": "functional, cell-based"}}, "note": "Activity calls are given as the source filed them. The calls are words filed in the database; no cut-off is given here.", "data": [{"molecule": "CO[C@H]1C[C@@H]2CC[C@@H](C)[C@@](O)(O2)C(=O)C(=O)N2CCCC[C@H]2C(=O)O[C@H]([C@H](C)C[C@@H]2CC[C@@H](O)[C@H](OC)C2)CC(=O)[C@H](C)/C=C(\\C)[C@@H](O)[C@@H](OC)C(=O)[C@H](C)C[C@H](C)/C=C/C=C/C=C/1C", "note": "[SIROLIMUS]", "values": [{"measurement": "EC50", "setting": "MCF7 [1]", "value": "< 0.001", "unit": "µM"}, {"measurement": "viability at 1 µM", "setting": "MCF7 [2]", "value": 30, "unit": "%"}]}, {"molecule": "CNC(=O)c1cccc(-c2ccc3c(N4CCOC[C@@H]4C)nc(N4CCOC[C@@H]4C)nc3n2)c1", "values": [{"measurement": "Activity", "setting": "MCF7 [1]", "value": "Active"}]}, {"molecule": "Nc1nc2cc(-c3nn(CC4CCCO4)c4ncnc(N)c34)ccc2o1", "note": "(configuration not stated)", "values": [{"measurement": "IC50", "setting": "[3]", "value": 0.149, "unit": "µM"}, {"measurement": "Activity", "setting": "[4]", "value": "Active"}, {"measurement": "Activity", "setting": "MCF7 [5]", "value": "Active"}, {"measurement": "Activity", "setting": "MDA-MB-231 [6]", "value": "Active"}, {"measurement": "IC50", "setting": "[7]", "value": 0.077, "unit": "µM"}, {"measurement": "IC50", "setting": "[8]", "value": 0.044, "unit": "µM"}, {"measurement": "EC50", "setting": "MCF7 [1]", "value": 0.008, "unit": "µM"}, {"measurement": "EC50", "setting": "MDA-MB-231 [9]", "value": 0.113, "unit": "µM"}, {"measurement": "IC50", "setting": "[10]", "value": 0.048, "unit": "µM"}, {"measurement": "EC50", "setting": "[11]", "value": 0.051, "unit": "µM"}, {"measurement": "IC50", "setting": "[12]", "value": 0.137, "unit": "µM"}, {"measurement": "IC50", "setting": "[13]", "value": 1.12, "unit": "µM"}, {"measurement": "IC50", "setting": "[14]", "value": 0.005, "unit": "µM"}]}, {"molecule": "Nc1nc2cc(-c3nn(CC4OCCO4)c4ncnc(N)c34)ccc2o1", "values": [{"measurement": "IC50", "setting": "[15]", "value": 0.271, "unit": "µM"}, {"measurement": "IC50", "setting": "[16]", "value": "> 100", "unit": "µM"}, {"measurement": "IC50", "setting": "[17]", "value": 0.302, "unit": "µM"}, {"measurement": "IC50", "setting": "[18]", "value": 0.059, "unit": "µM"}, {"measurement": "IC50", "setting": "[19]", "value": "> 100", "unit": "µM"}, {"measurement": "IC50", "setting": "[20]", "value": 8.63, "unit": "µM"}, {"measurement": "IC50", "setting": "[21]", "value": 0.115, "unit": "µM"}, {"measurement": "IC50", "setting": "[22]", "value": "> 100", "unit": "µM"}, {"measurement": "IC50", "setting": "[23]", "value": "> 100", "unit": "µM"}, {"measurement": "EC50", "setting": "MCF7 [1]", "value": 0.0076, "unit": "µM"}, {"measurement": "IC50", "setting": "[24]", "value": "> 100", "unit": "µM"}, {"measurement": "IC50", "setting": "[25]", "value": 3.85, "unit": "µM"}, {"measurement": "IC50", "setting": "[26]", "value": "> 100", "unit": "µM"}, {"measurement": "IC50", "setting": "[27]", "value": "> 100", "unit": "µM"}]}, {"molecule": "Nc1nc2cc(-c3nn(CC=O)c4ncnc(N)c34)ccc2o1", "values": [{"measurement": "Activity", "setting": "MCF7 [28]", "value": "inactive"}]}, {"molecule": "COC(Cn1nc(-c2cnc3[nH]ccc3c2)c2c(N)ncnc21)OC", "values": [{"measurement": "Activity", "setting": "MCF7 [1]", "value": "Active"}]}]}
